# Measurements from patent US9718771B2, “Aniline derivative, pharmaceutical composition containing same, and use thereof” (Kissei Pharmaceutical Co., Ltd., priority 2014, dated 2017).
# Columns and labels:
# [1] = tested on: Naïve T cells-transferred colitis model; experiment: Drug efficiency evaluation in naïve T cells-transferred colitis model; type: in vivo; settings: SCID mice, mean ± standard error
# Method: The Drug Efficiency Evaluation in Naïve T Cells—Transferred Colitis Model
# (1) Purification of CD45RB Positive Naïve T Cells and Transfer the Cells into SCID Mice
# After female BALB/c mice (Charles River Japan, 8-weeks-old in use) were sacrificed by blood removal from cervical vein under inhalation anesthesia with isoflurane spleens were harvested from these mice. Spleens were washed with ice-cold PBS (phosphate buffered saline, Invitrogen) and stored in 50 mL tube containing PBS on ice. Spleens stored on ice were mashed with the upper portion of slide glasses inside a biological safety cabinet, and filtered through a cell filter (pore size 70 μm), and the filtrate was centrifuged at 500×g, room temperature for 5 minutes. After the supernatant was removed, 12 mL of RBC lysis buffer (Biolegend) was added to a cell pellet and it was resuspended and left for about 3 minutes. The supernatant was removed after centrifugation and the hemolytic process was performed by repeating same procedure once again.
# The cells were purified with Mouse Naive T cell CD4^+/CD62L^+/CD44^low Colum Kit (R&D systems). The cells performed with the hemolytic process, were suspended by column buffer attached to the above Column Kit, and purified through a cell filter (pore size 70 μm) after centrifugation at 500×g, room temperature for 5 minutes. The cells were resuspended with column buffer, and antibody cocktails attached to the above Column Kit were added to this and mixed. After that, the cells were purified according to the protocol of the Column Kit.
# Next, purification of CD45RB positive cells was performed by MACS (registered mark) separator (Miltenyi Biotec). The purified cells were suspended with 2 mL of PBS containing 0.5% BSA, and reacted at room temperature for 15 minutes after adding FITC (fluorescein isothiocyanate)-labeled anti-CD45RB antibody (Biolegend). After washing two times with PBS containing 0.5% BSA by centrifugation, the cells were resuspended with 2 mL of PBS containing 0.5% BSA and reacted at room temperature for 10 minutes after adding anti-FITC microbeads (Miltenyi Biotec). After washing one time with PBS containing 0.5% BSA by centrifugation, the cells were resuspended with 3 mL of PBS containing 0.5% BSA, and a fraction of CD45RB positive cells was purified according to the protocol of MACS (registered trademark) separator. In the process of elution after detached from MACS (registered trademark) separator, the cells were separated with 5 mL of PBS. The cell suspension was washed one time by centrifugation with PBS, resuspended by appropriate PBS and measured the cell number as naïve T cells suspension for transfer. Female CB17/Icr-scid/scid Jcl (SCID mice) (Charles River Japan, 8-weeks-old in use) were induced colitis by intraperitoneal administration of 500 μL (divided into 250 μL two times) of naïve T cells suspension prepared at 6×10^5 cells/mL by PBS.
# (2) Measurement of Body Weight and Procedure for Administration of Drugs
# Body weights were measured at day 1, 8 and 15 as day 0 when naïve T cells were transferred to mice. Mice were grouped evenly, based on body weight change at day 15. The measurement of body weight was performed two times a week after day 15. A solvent (Vehicle) and test compounds were administered twice a day from the evening of day 15. The administration solution was prepared as indicated below. Firstly, 0.5% methyl cellulose (Wako pure chemicals) of 1/10 volume of total volume was added to test compound, and a suspension was prepared by sonication. […] After that, administration solutions for test compounds were prepared by sonication while adding distilled water of 9/10 volume of total volume to these suspensions in several batches. A solution prepared in the same volume ratios of 0.5% methyl cellulose and distilled water as administration solutions for test compounds was used as vehicle. Administration solutions for vehicle or test compounds were orally administered to mice at 5 mL/kg.
# [2] = tested on: blood lymphocytes; experiment: Confirmation test for reduction effects on the number of lymphocytes; type: in vivo, Male Sprague-Dawley rats; settings: rat, oral; for Number of lymphocytes (% of Vehicle) After 6 hours: 6 hours after administration; for Number of lymphocytes (% of Vehicle) After 24 hours: 24 hours after administration; for Number of lymphocytes (% of Vehicle) After 48 hours: 48 hours after administration
# Method: Confirmation Test for Reduction Effects on the Number of Lymphocytes
# Reduction effects on the number of blood lymphocytes by test compounds were confirmed using Male Sprague-Dawley rats (Japan SLC, 7-weeks-old in use). Administration solutions for test compounds were prepared on hot-plate at 50° C. After test compounds were dissolved by DMSO (dimethyl sulfoxide, Wako Pure Chemicals) of 1/10 volume of the total volume, WellSolve (Celeste) of 1/10 volume of the total volume was added to this solution. Further, distilled water (Otsuka Pharmaceutical Factory) of 8/10 volume of the total volume was added to this solution, and the administration solutions for test compounds were prepared. A solution, prepared in the same volume ratios of DMSO. WellSolve and distilled water as the administration solution for test compounds, was used as a solvent (Vehicle). Vehicle or test compound was administered orally to rats at 1 mL/body. After 6, 24 and 48 hours from administration of vehicle or test compounds, rats were held on the board at supine position under inhalation anesthesia with isoflurane (Abbott Japan). Blood samples (200 to 250 μL) were collected from the cervical vein of this rat using 1 mL syringes with needles of 25G. The collected blood samples were transferred to a microtube treated with EDTA-2K (Japan Becton Dickinson), and stored at room temperature after gently mixing with inversion. The number of lymphocytes was measured by ADVIA (registered mark) (Bayer), which is a multi-parameter automated blood cell counter using this blood samples. The average number of lymphocytes in vehicle-treated group (vehicle group) was defined as 100%, and the average number of lymphocytes in each test compound-treated group was calculated as % of vehicle. As Comparative Example 2, 1-{5-[1-(4-chloro-3-methyl-phenyl)-propylamino]-2-methyl-benzyl}-azetidine-3-carboxylic acid (patent literature 1, Example 4) was evaluated as well.
# [3] = biological target: human S1P1 (EDG-1) (Homo sapiens (Human), UniProt P21453); experiment: Confirmation test of antagonistic activity for human S1P1 receptor (35S-GTP binding, cell membranes); type: biochemical; settings: inhibition of 35S-GTP binding induced by S1P1 receptor selective agonist; HEK293 membranes expressing human S1P1
# Method: Confirmation Test of Antagonistic Activity for Human S1P1 Receptor
# Test compounds were tested by reduction of functional binding activity of ^35S-GTP (guanosine 5′-O-[gamma-thio] triphosphate, PerkinElmer) to G protein using cell membranes expressing human S1P1 (EDG-1). S1P1-pcDNA3.1/V5-His-Topo vector was prepared by inserting cDNA (NM_001400) encoding human S1P1 into the expression vector, pcDNA3.1/V5-His-Topo (registered trademark) (Invitrogen). Next, the above S1P1-pcDNA3.1 vector was transfected into HEK293 cells by Lipofectamine2000 (registered trademark) (Invitrogen). The transfected cells were incubated with D-MEM liquid medium each containing 10% FBS (Fetal bovine serum), 100 U/mL penicillin, 100 μg/mL streptomycin and 1 mg/mL Geneticin (registered trademark) (Invitrogen) in an incubator under the condition of 5% CO2 at 37° C. and Geneticin (registered mark)-resistant cell line stably expressing S1P1 were obtained. The obtained stably S1P1-expressing cells were incubated with D-MEM liquid medium each containing 10% FBS and 0.5 mg/mL Geneticin (registered trademark) in an incubator under the condition of 5% CO2 at 37° C. The cells grown to confluence were harvested by a buffer solution containing 50 mM Tris, 2 mM EDTA (ethylmediaminetetraacetic acid) and 125 mM sodium chloride, and centrifuged at 1880×g, 4° C. for 10 minutes. After a supernatant was removed, a cell pellet was resuspended by the same buffer solution. For making cell membranes fragile, this cell suspension was frozen at −80° C. and then thawed. The cells were centrifuged at 1880×g, 4° C. for 10 minutes, and a supernatant was removed. The cell pellet was suspended by adding the same buffer solution and a fracture solution (10 mM sodium bicarbonate and 5 mM EDTA, pH 7.5) at a ratio of 2:1. The cells were fractured by subjecting the cell suspension to ultrasonication, and a cell membrane fraction was isolated by centrifugation at 1880×g, 4° C. for 10 minutes and ultracentrifugation of the supernatant at 80000×g, 4° C. for 30 minutes. A pellet of the cell membrane fraction was suspended by the fracture solution containing protease inhibitor cocktail (Roche) and stored at −80° C. until use. A protein concentration of the cell membrane fraction was determined using BCA Protein Assay Kit (Pierce) in accordance with an attached protocol.
# Inhibitory activity evaluation was performed by multi-screen (registered trademark) HTS 96-well plate (Millipore) using the cell membrane fraction stably expressing S1P1 obtained by the above operation. 25 μL of assay solution (50 mM Tris, 100 mM sodium chloride, 5 mM magnesium chloride, 1 mM EDTA, 1 mM DTT (dithiothreitol), 10 μM GDP (guanosine diphosphate) and 0.5% BSA (bovine serum albumin), pH 7.4), 25 μL of test compounds solution diluted by assay solution and 25 μL of the membrane fraction (0.2 μg protein/μL) were added to each well, and the mixture was gently shaken at room temperature: for 30 minutes. Then, 25 μL of ^35S-GTP, and 25 μL of 50 nM S1P1 receptor selective agonist (1-[4-(4-phenyl-5-trifluoromethylthiophen-2-ylmethoxy)benzyl]azetidine-3-carboxylic acid, “J. Med. Chem.”, 2004, vol. 47, pp. 6662-6665, compound 18) were added to each well, respectively, and it was reacted at room temperature for 60 minutes. After the reaction, a reaction solution of each well was suction-filtered. After suction filtration, ice-colded wash solution (50 mM Tris, 100 mM sodium chloride, […] and 1 mM EDTA, pH 7.4) was added to each well, and moreover filters were washed by suction filtration. This wash procedure was performed three times. A bottom of the plate containing the filters was dried at 60° C. After drying, 30 μL of MicroScinti-40 (PerkinElmer) was added to each well, and the radioactivity adsorbed on the filter was determined by TopCount NXT (registered trademark) (PerkinElmer) after shaking for 30 minutes at room temperature. […]
# [4] = oral twice a day, 1.5 mg/kg, vehicle group = 100%
# human S1P1 (EDG-1), sequence (P21453 whole entry): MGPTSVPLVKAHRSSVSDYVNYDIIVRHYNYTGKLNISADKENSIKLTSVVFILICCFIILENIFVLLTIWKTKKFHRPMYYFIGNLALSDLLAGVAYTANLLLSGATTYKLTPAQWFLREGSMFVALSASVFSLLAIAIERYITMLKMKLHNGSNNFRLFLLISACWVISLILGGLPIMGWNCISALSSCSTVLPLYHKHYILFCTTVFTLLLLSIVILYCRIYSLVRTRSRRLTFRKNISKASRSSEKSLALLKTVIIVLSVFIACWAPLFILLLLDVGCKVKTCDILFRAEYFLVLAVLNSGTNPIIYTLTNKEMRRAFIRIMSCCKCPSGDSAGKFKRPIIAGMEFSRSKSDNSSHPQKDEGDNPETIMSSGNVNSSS
structure (smiles),measurement,setting,value
"Nc1ccc(O)c(C(=O)O)c1 [5-Aminosalicylic acid, reference compound]",Colon weight (%),"[1]; oral twice a day, vehicle group = 100%",75.9 ± 58.3%
"CCC(Nc1ccc(C)c(CN2CC(C(=O)O)C2)c1)c1ccc(Cl)c(C)c1 (stereo not drawn) [Comparative Example 2, 1-{5-[1-(4-chloro-3-methyl-phenyl)-propylamino]-2-methyl-benzyl}-azetidine-3-carboxylic acid, reference compound]",Number of lymphocytes (% of Vehicle) After 6 hours,[2]; 1 mg/kg,39.9 % of Vehicle
same,Number of lymphocytes (% of Vehicle) After 24 hours,[2]; 1 mg/kg,82.3 % of Vehicle
same,Number of lymphocytes (% of Vehicle) After 48 hours,[2]; 1 mg/kg,109.6 % of Vehicle
same,Number of lymphocytes (% of Vehicle) After 6 hours,[2]; 10 mg/kg,16.8 % of Vehicle
same,Number of lymphocytes (% of Vehicle) After 24 hours,[2]; 10 mg/kg,94.0 % of Vehicle
same,Number of lymphocytes (% of Vehicle) After 48 hours,[2]; 10 mg/kg,110.3 % of Vehicle
same,time course of the number of lymphocytes in blood (in words),[2]; 6 to 48 hours after administration,transient reduction of the number of lymphocytes in blood
"CCN(c1ccc(Cl)c(C(F)(F)F)c1)C1CCc2c1ccc(C)c2CN1CC(C(=O)O)C1 (stereo not drawn) [Compound 2-8, 1-{1-[(4-Chloro-3-trifluoromethylphenyl)(ethyl)amino]-5-methylindan-4-ylmethyl}azetidine-3-carboxylic acid]",Number of lymphocytes (% of Vehicle) After 6 hours,[2]; 1 mg/kg,15.1 % of Vehicle
same,Number of lymphocytes (% of Vehicle) After 24 hours,[2]; 1 mg/kg,34.5 % of Vehicle
same,Number of lymphocytes (% of Vehicle) After 48 hours,[2]; 1 mg/kg,87.7 % of Vehicle
same,Number of lymphocytes (% of Vehicle) After 6 hours,[2]; 10 mg/kg,13.7 % of Vehicle
same,Number of lymphocytes (% of Vehicle) After 24 hours,[2]; 10 mg/kg,12.3 % of Vehicle
same,Number of lymphocytes (% of Vehicle) After 48 hours,[2]; 10 mg/kg,33.4 % of Vehicle
same,IC50,[3],2.9 nM
"C=Cc1ccc(C(C)N(CC)c2ccc(Cl)c(C(F)(F)F)c2)cc1CN1CC(C(=O)O)C1 (stereo not drawn) [Compound 4-1, 1-(5-{1-[(4-Chloro-3-trifluoromethylphenyl)(ethyl)amino]ethyl}-2-vinylbenzyl)-azetidine-3-carboxylic acid]",IC50,[3],1.2 nM
CCN(c1cc(C(F)(F)F)cc(C(F)(F)F)c1)C(C)c1ccc(C)c(CN2CC(C(=O)O)C2)c1 (stereo not drawn) [Compound 4-2],IC50,[3],3.1 nM
"CCN(c1ccc(Cl)c(C(F)(F)F)c1)C(C)c1ccc(CO)c(CN2CC(C(=O)O)C2)c1 (stereo not drawn) [Compound 5-1, 1-(5-{1-[(4-Chloro-3-trifluoromethylphenyl)(ethyl)amino]ethyl}-2-hydroxymethyl-benzyl)azetidine-3-carboxylic acid]",IC50,[3],4.4 nM
CCN(c1ccc(Cl)c(C(F)(F)F)c1)C(CO)c1ccc(C)c(CN2CC(C(=O)O)C2)c1 (stereo not drawn) [Compound 6-2],IC50,[3],2.5 nM
CCN(c1ccc(Cl)c(C)c1)C1CCc2c(CN3CC(C(=O)O)C3)cccc21 (stereo not drawn) [Compound 6-3],IC50,[3],2.8 nM
CCN(c1ccc(Cl)c(C)c1)[C@H](C)c1cccc(CN2CC(C(=O)O)C2)c1 [Compound 6-5],IC50,[3],1.2 nM
"C[C@]12C=CC(=O)C=C1CC[C@@H]1[C@@H]2[C@@H](O)C[C@@]2(C)[C@H]1CC[C@]2(O)C(=O)CO [Prednisclone, reference compound]",Body weight change ratio (%),"[1]; oral twice a day from day 15, 1.5 mg/kg, day 30",−10.4 ± 1.4%
same,Colon weight (%),[1]; [4],58.3 ± 18.9%
same,DAI score (%),[1]; [4],104.4 ± 20.0%
